According to ChEMBL document CHEMBL1201862, “PubChem BioAssay data set” (2004):
Calls of active or inactive are those of the source.

Assays:
[1] = viability of HCT116 lacking mutant beta-catenin – cell-based, human colon tumor, dose response (AID 1045); assay type: functional;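 also: HCT116 colon tumor cells with beta catenin knocked out; cells exposed to compound for 60 hours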
[2] = microbe, parasite or virus in culture; assay type: functional; conditions: Mycobacterium tuberculosis
[3] = viability of PTEN-deleted HCT116 cells – cell-based, HCT116 PTEN knockout, dose response (AID 1047); assay type: functional;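 also: HCT116 colon tumor cells with PTEN knocked out; cells exposed to compound for 60 hours before readout; potency for loss of cell viability measured by luminescence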
INS1 = test: INS-1E survival protection against cytokine death – cell-based, luminescence, retest, dose response (AID 449756); assay type: functional; conditions: Rattus norvegicus;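 also: cell death triggered by IL-1 beta plus TNF-alpha plus IFN-gamma mixture; protective hits raise ATP signal compared with cytokine alone wells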
cells [4] = assay type: functional, cell-based
cells [5] = assay type: functional, cell-based; remark: listed apart in the source
Paired box protein Pax-8 = Paired box protein Pax-8 (Homo sapiens, UniProt Q06710); test: PAX8 transcriptional activity inhibition in RMG-I – RMG-I cells, luciferase, cherry-pick, dose response (AID 687027); assay type: functional, cell-based;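 also: luciferase reporter driven by Pax8 target thyroperoxidase promoter measured by SteadyGlo luminescence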
[6] = OVCAR8 cell viability loss – plate reader, dry powder samples, PAX8 project, dose response (AID 743197); assay type: functional, cell-based; conditions: OVCAR-8
[7] = OVCAR-3 cell viability loss – plate reader, dry powder samples, PAX8 inhibitor project, dose response (AID 743044); assay type: functional, cell-based
[8] = P. falciparum Dd2 growth inhibitors, dose response, SYBR Green, cherry-picked samples (AID 1159567); assay type: functional, cell-based

Chain of Paired box protein Pax-8 (Q06710 whole entry): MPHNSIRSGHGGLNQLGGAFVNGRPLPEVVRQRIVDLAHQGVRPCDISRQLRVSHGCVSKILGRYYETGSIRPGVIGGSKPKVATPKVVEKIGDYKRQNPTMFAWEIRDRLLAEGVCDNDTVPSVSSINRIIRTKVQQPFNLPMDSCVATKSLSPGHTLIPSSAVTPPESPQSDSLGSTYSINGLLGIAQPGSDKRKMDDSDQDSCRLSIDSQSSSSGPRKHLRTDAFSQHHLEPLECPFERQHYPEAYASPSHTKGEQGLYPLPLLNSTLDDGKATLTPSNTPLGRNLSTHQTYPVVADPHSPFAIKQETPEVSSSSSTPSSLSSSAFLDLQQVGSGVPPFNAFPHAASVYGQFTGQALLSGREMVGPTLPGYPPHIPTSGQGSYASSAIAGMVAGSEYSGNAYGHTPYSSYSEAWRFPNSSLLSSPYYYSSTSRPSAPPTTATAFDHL

Compound | CC50 [2] | EC50 (cells [4]) | EC50 (cells [5]) | further results
Cc1nc(Nc2ccc(Cl)c(Cl)c2)sc1C(=O)Nc1ccccc1 | 27.2 µM (active) |  |  | EC50 [1]: 21.9 µM (active); EC50 [3]: 19.8 µM (active); AC50 (INS1): 7.01 µM (active)
CC(=O)c1cccc(N(C(=O)c2ccccn2)C(C(=O)NC2CCCCC2)c2ccccc2)c1 (configuration not stated) |  | > 350 µM (not active) | > 350 µM (not active) | 
COc1ccc(-c2cn3nc(SCC(=O)NCC4CCCO4)ccc3n2)cc1 (configuration not stated) |  | 9.41 µM (active) | > 350 µM (not active) | 
CNNC(=O)C(C)NC(=O)c1ccc(Br)cc1 (configuration not stated) |  | > 350 µM (not active) | > 350 µM (not active) | 
O=C(NC1CCN(Cc2ccccc2)CC1)c1cccc(S(=O)(=O)Nc2ccc(SC(F)F)cc2)c1 | 32.7 µM (active) |  |  | 
CN(CC(=O)Nc1ccc(F)c(F)c1F)C(=O)/C=C/c1ccc(Cl)cc1 |  | 155 µM (active) | > 350 µM (not active) | 
CCCOc1ccc(C(=O)c2nc3c(n2O)CCCCC3)cc1 | > 40 µM (active) |  |  | 
Cc1nc(NCCc2ccccc2)c2oc3ccccc3c2n1 | 31.6 µM (active) |  |  | 
O=C(NC(=S)Nc1cccc([N+](=O)[O-])c1)c1ccco1 |  | > 350 µM (not active) | > 350 µM (not active) | 
CC(=O)N1CCN(c2ccc(Oc3ccc([N+](=O)[O-])c(C(F)(F)F)c3)cc2)CC1 | > 40 µM (active) |  |  | AC50 (INS1): 5.74 µM (active)
COc1ccc(C(=O)NCCCOC(=O)c2ccc(OC)cc2)cc1 |  | > 350 µM (not active) | > 350 µM (not active) | 
O=C(c1ccc(Cl)cc1Cl)N1CCN(c2ccc(N3CCOCC3)nn2)CC1 |  | > 350 µM (not active) | > 350 µM (not active) | 
O=C(/C=C/c1cccnc1)c1cccc(O)c1 | 15.6 µM (active) |  |  | 
COc1ccc(/C=N/Nc2ncnc3sc4c(c23)CCCC4)cc1OC |  | > 350 µM (not active) | > 350 µM (not active) | 
C[C@@H]1CCCCO[C@@H](CN(C)Cc2ccc(Cl)c(Cl)c2)[C@H](C)CN([C@H](C)CO)C(=O)c2cc(NS(=O)(=O)c3ccc(F)cc3)ccc2O1 |  |  |  | AC50 (Paired box protein Pax-8): 8.2 µM (active); AC50 [6]: > 70 µM (inactive)
C[C@@H]1CN([C@H](C)CO)C(=O)c2cc(NC(=O)Nc3ccccc3)ccc2O[C@@H](C)CCCCO[C@H]1CN(C)C(=O)Nc1ccc(C(F)(F)F)cc1 |  |  |  | AC50 [7]: 46.2 µM (active); AC50 (Paired box protein Pax-8): 10.8 µM (active); AC50 [6]: > 70 µM (inactive)
C[C@H](CO)N1C[C@H](C)[C@H](CN(C)S(=O)(=O)c2ccc(F)cc2)OCCCC[C@H](C)Oc2ccc(NC(=O)Nc3ccc(F)cc3)cc2C1=O |  |  |  | AC50 (Paired box protein Pax-8): 7.09 µM (active); AC50 [6]: > 70 µM (inactive)
C[C@@H]1CN([C@H](C)CO)C(=O)c2cc(NC(=O)Nc3ccccc3)ccc2O[C@@H](C)CCCCO[C@@H]1CN(C)CC1CCCCC1 |  |  |  | AC50 [7]: 34.3 µM (active); AC50 (Paired box protein Pax-8): 5.42 µM (active); AC50 [6]: 53.5 µM (active)
CCOC(=O)CCCc1ccc(/C(C)=N/NC(N)=S)cc1 | > 40 µM (active) |  |  | 
COc1cccc(C#Cc2ccc([C@@H]3[C@@H](C#N)N(C(=O)c4ccccn4)[C@H]3CO)cc2)c1 |  |  |  | AC50 [8]: 3.29 µM (active)
C[C@@H]1CN([C@H](C)CO)C(=O)c2c(c3ccccc3n2C)-c2ccccc2CO[C@H]1CN(C)S(=O)(=O)c1ccsc1 |  |  |  | AC50 [8]: 4.22 µM (active)
COc1ccc(C#Cc2ccc3c(c2)[C@@H]2[C@@H](CCN2C(=O)C2CCCC2)[C@H](CO)N3)cc1 |  |  |  | AC50 [8]: 3.97 µM (active)
CCN1CCN(c2ncnc3ccc(Br)cc23)CC1 |  | > 350 µM (not active) | > 350 µM (not active) | 
